Series [1] relates to HSV-1 17syn+ induced corneal neovascularization. Nature of the series: HSV-1 corneal neovascularization mouse model, slit-lamp examination score. The format is in vivo, Balb/c mice. To be noted: day 25 post infection; drops 4 times daily for 14 days; 1% TFT, 0.01% flavopiridol, 0.1% DRB; n=10. The procedure:
Corneal neovascularization was determined in a masked fashion by slit lamp analysis on days 2, 4, 7, 9, 11, 14, 18, and 25 post-infection (PI) with 5×10^5 PFU/eye of HSV-1 17syn+ using the formula A=(C×0.4×L×n)/2 where C=clock hours of neovascularization; 30° arc is 1 (360° circle with a total of 12); L is the length of the longest neovessel, and A is the area of neovascularization.
All experimental procedures were performed in accordance with the ARVO Resolution for the Use of Animals in Ophthalmic and Vision Research and were approved by the Xavier University Animal Care and Use Committee. Female 20 g Balb/c mice were obtained from Charles River Laboratories. Mice were allowed to equilibrate to their surroundings for 2 weeks and then were anesthetized by intramuscular administration of xylazine (6.6 mg/kg of body weight) and ketamine (100 mg/kg of body weight). The corneas were mildly scarified in a 2×2 cross-hatch pattern and each cornea was inoculated with 5×10^5 PFU of strain HSV 17syn+. […] Average neovascularization/eye was scored using the formula A=(C×0.4×L×π)/2 where C=clock hours of neovascularization; 30° arc is 1 (360° circle with a total of 12); L is the length of the longest neovessel, and A is the area of neovascularization. Students scored (by eye) the animals on the days indicated in a masked fashion using the slit-lamp, and images representative of each group were taken. Clinical scores based on epiphora, inflammation and discharge were calculated where 0=no manifestations, +1=slight manifestations, +2=moderate manifestations, and +3=severe manifestations. […] Ex ovo chick embryo chorioallantoic membrane collagen angiogenesis assays were performed using methods as previously described (Deryugina E I and Quigley J P. Chapter 2. Chick embryo chorioallantoic membrane models to quantify angiogenesis induced by inflammatory and tumor cells or purified effector molecules. Methods Enzymol. 444:21-41. 2008). […]
This was assessed with the dose and frequency that was used in the chemotherapeutic study of HSV-1 corneal neovascularization. […]

Series [2] deals with HSV-1 17syn+ ocular infection. Nature of the series: HSV-1 ocular infection mouse model, combined clinical score (epiphora, inflammation, discharge). The format is in vivo, Balb/c mice. To be noted: 1% TFT, 0.01% flavopiridol, 0.1% DRB drops. The procedure:
The combined clinical score was determined based on epiphora (excess tearing), inflammation and discharge. […], +1=slight manifestations, +2=moderate manifestations, and +3=severe manifestations.
(§1) All experimental procedures were performed in accordance with the ARVO Resolution for the Use of Animals in Ophthalmic and Vision Research and were approved by the Xavier University Animal Care and Use Committee. Female 20 g Balb/c mice were obtained from Charles River Laboratories. Mice were allowed to equilibrate to their surroundings for 2 weeks and then were anesthetized by intramuscular administration of xylazine (6.6 mg/kg of body weight) and ketamine (100 mg/kg of body weight). The corneas were mildly scarified in a 2×2 cross-hatch pattern and each cornea was inoculated with 5×10^5 PFU of strain HSV 17syn+. […] DNA was collected by swabbing the eyes with filter paper, and the eyes were examined with a slit-lamp on PI days 2, 4, 7, 9, 11, 14, 18 and 25. Average neovascularization/eye was scored using the formula A=(C×0.4×L×π)/2 where C=clock hours of neovascularization; 30° arc is 1 (360° circle with a total of 12); L is the length of the longest neovessel, and A is the area of neovascularization. Students scored (by eye) the animals on the days indicated in a masked fashion using the slit-lamp, and images representative of each group were taken. Clinical scores based on epiphora, inflammation and discharge were calculated where 0=no manifestations, +1=slight manifestations, +2=moderate manifestations, and +3=severe manifestations. Mice were sacrificed with CO2 on day 25 post-infection, and eyes were harvested, sectioned, stained with hematoxylin and eosin (H&E) for histological analysis based on peripheral neovascularization and leukocytic infiltration where 0=clear eyes, 0.5=either peripheral neovascularization or leukocytic infiltration, and 1=both peripheral neovascularization and leukocytic infiltration. Ex ovo chick embryo chorioallantoic membrane collagen angiogenesis assays were performed using methods as previously described (Deryugina E I and Quigley J P. Chapter 2. Chick embryo chorioallantoic membrane models to quantify angiogenesis induced by inflammatory and tumor cells or purified effector molecules. Methods Enzymol. 444:21-41. 2008). Briefly, fertilized embryos (Charles River Laboratories, Charleston, S.C.) were incubated at 37.5° C. for 3 days, removed from their shell using a Dremel tool and placed into a covered weighing boat for 7 further days of incubation. […] Four collagen onplants were added per egg on at least 3 separate eggs. After three additional days of incubation, images were taken of each plug using a mini-Vid camera (LW Scientific; Lawrenceville, Ga.) and quantified in a masked fashion based on the percentage of grids that were positive for newly formed blood vessels.
FIG. 1B is the combined clinical score for the treatment groups based on epiphora (excess tearing), inflammation, and discharge.

The subject of series [3] is HSV-1 17syn+ ocular infection. Nature of the series: HSV-1 ocular infection mouse model, H&E histology of eyes (leukocytic infiltration, peripheral neovascularization). The format is in vivo, Balb/c mice. To be noted: day 25 PI; for mouse eyes exhibiting corneal neovascularization / mouse eyes exhibiting leukocytic infiltration: H&E sections; for histological score (scale 0-1) for leukocytic infiltrate and peripheral neovascularization: H&E stained corneal sections. The procedure:
Histological score (0-1) was calculated based on leukocytic infiltration and peripheral neovascularization of hematoxylin & eosin (H&E) stained slides of mouse eyes on day 25 PI.
as §1
To confirm the results in FIGS. 1A and 1B, sections of one cornea from each mouse was sectioned, stained with H&E and analyzed for leukocytic infiltrate and peripheral neovascularization of the cornea.

For the next series, the system named is HSV-1. Nature of the series: In vitro viral inhibition (plaque) assay in CV-1 cells. The format is cell-based. The procedure: Numbers of plaque-forming units (PFU) were determined in a standard plaque assay procedure using CV-1 cells.
The HSV-1 strain employed was 17 syn+. Before inoculation, numbers of plaque-forming units (PFU) were determined in a standard plaque assay procedure using CV-1 cells. Pooled primary human umbilical vein endothelial cells (HUVEC) were obtained from Lonza (Basel, Switzerland) and were cultured in Medium 199 (Life Technologies, Carlsbad, Calif.) supplemented with 20% heat-inactivated FBS, penicillin G (100 U/ml), streptomycin ([…]), 2 mM L-glutamine and 1:100 endothelial cell growth supplement (ECGS, BD Biosciences, Bedford, Mass.) on tissue culture plates coated with 0.2% gelatin up to passage 6. Cells were sub-passaged or harvested when they reached ˜80% confluence. For periods of serum-deprivation, HUVEC were incubated for 4 or 16 hours in serum-starvation medium (SSM) containing Medium 199 without phenol red or ECGS but containing 0.5% FBS unless otherwise indicated. In vitro viral inhibition assays with CV-1 cells were performed as previously described (Gong E Y. Methods for screening and profiling inhibitors of herpes simplex viruses. Methods Mol Biol. 1030:303-313. 2013).

In the next series the test system is HSV-1 17syn+. Nature of the series: Real-time PCR of HSV-1 DNA on ocular swabs of infected mice. The format is in vivo, Balb/c mice. To be noted: day 25 post infection; 1% TFT, 0.01% flavopiridol, 0.1% DRB drops; n=10. The procedure: SYBR Green semi-quantitative real-time PCR was performed on DNA samples eluted from swabs taken from mouse eyes on days 2, 4, 7, 9, 11, 14, 18 and 25 post infection with 5×10^5 PFU/eye HSV-1 17syn+ using primers specific for HSV-1 DNA polymerase.
All experimental procedures were performed in accordance with the ARVO Resolution for the Use of Animals in Ophthalmic and Vision Research and were approved by the Xavier University Animal Care and Use Committee. Female 20 g Balb/c mice were obtained from Charles River Laboratories. Mice were allowed to equilibrate to their surroundings for 2 weeks and then were anesthetized by intramuscular administration of xylazine (6.6 mg/kg of body weight) and ketamine (100 mg/kg of body weight). The corneas were mildly scarified in a 2×2 cross-hatch pattern and each cornea was inoculated with 5×10^5 PFU of strain HSV 17syn+. […] DNA was collected by swabbing the eyes with filter paper, and the eyes were examined with a slit-lamp on PI days 2, 4, 7, 9, 11, 14, 18 and 25. Average neovascularization/eye was scored using the formula A=(C×0.4×L×π)/2 where C=clock hours of neovascularization; 30° arc is 1 (360° circle with a total of 12); L is the length of the longest neovessel, and A is the area of neovascularization. Students scored (by eye) the animals on the days indicated in a masked fashion using the slit-lamp, and images representative of each group were taken. Clinical scores based on epiphora, inflammation and discharge were calculated where 0=no manifestations, +1=slight manifestations, +2=moderate manifestations, and +3=severe manifestations. […] Ex ovo chick embryo chorioallantoic membrane collagen angiogenesis assays were performed using methods as previously described (Deryugina E I and Quigley J P. Chapter 2. Chick embryo chorioallantoic membrane models to quantify angiogenesis induced by inflammatory and tumor cells or purified effector molecules. Methods Enzymol. 444:21-41. 2008). […]

Series [4] can be described thus: Ocular safety and tolerability of the formulation, mouse eyes. The format is in vivo. To be noted: dose and frequency of the HSV-1 corneal neovascularization study. The procedure: (§2) This was assessed with the dose and frequency that was used in the chemotherapeutic study of HSV-1 corneal neovascularization. FIG. 1A presents the results of slit-lamp examination (SLE) scores of the corneas of the four treatment groups beginning on post-inoculation day 2 and continuing to 25 days following infection.

The nature of series [5]: Ocular safety and tolerability of the formulation, rabbit eyes. To be noted: dose and frequency of the HSV-1 corneal neovascularization study. The format is in vivo. The procedure:
as §2

Usually IC50 stands for the midpoint of a concentration-inhibition curve. `OC[C@H]1O[C@@H](n2cnc3cc(Cl)c(Cl)cc32)[C@H](O)[C@@H]1O` [DRB, 5,6-Dichlorobenzimidazole-1-β-D-ribofuranoside]: in series [1], the “slit-lamp examination (SLE) score of corneal neovascularization” value is listed as 0.042±0.60. Moreover, the “combined clinical score (epiphora, inflammation, discharge; 0 to +3)” value (“combined clinical score” below) in series [2] (day 11) came out at 0.00±0.0. Also, the “combined clinical score” value in series [2] (day 25) was found to be 0.042±0.60. Besides, in series [3], the “mouse eyes exhibiting corneal neovascularization” value worked out at 0%; the “mouse eyes exhibiting leukocytic infiltration” value stood at 10%; the “histological score (scale 0-1) for leukocytic infiltrate and peripheral neovascularization” value was found to be 0.25±0.134. Further, the “concentration at which HSV-1 replication was significantly reduced” value with HSV-1 is 25 µM. In addition, the IC50 with HSV-1 (read-out: average IC50 of HSV-1 replication) came to 86.7 µM. Besides, in the series with HSV-1 17syn+, the “quantitative real-time PCR score (HSV-1 DNA) on ocular swabs” value worked out at 0.042±0.60. In series [4], the “safety and tolerability of the formulation in the eye” value was “safe and well-tolerated”. Moreover, the “safety and tolerability of the formulation in the eye” value in series [5] is “safe and well-tolerated”.

Take `O=c1[nH]c(=O)n([C@H]2C[C@H](O)[C@@H](CO)O2)cc1C(F)(F)F` [TFT, triflurothymidine]: the “slit-lamp examination (SLE) score of corneal neovascularization” value in series [1] is 0.0±0.0. Moreover, in series [2] (day 11), the “combined clinical score” value is on record as 0.002±0.41. Moreover, the “combined clinical score” value in series [2] (day 25) worked out at 0.00±0.00. Moreover, in series [3], the “mouse eyes exhibiting corneal neovascularization” value amounted to 0%; the “mouse eyes exhibiting leukocytic infiltration” value was found to be 30%; the “histological score (scale 0-1) for leukocytic infiltrate and peripheral neovascularization” value came out at 0.278±0.088. Besides, the “quantitative real-time PCR score (HSV-1 DNA) on ocular swabs” value in the series with HSV-1 17syn+ is 0.0±0.0.

Source of the values: patent US20180200279A1, “INHIBITION OF HSV-1-ASSOCIATED CORNEAL NEOVASCULARIZATION USING INHIBITORS OF CYCLIN-DEPENDENT KINASE 9” (XAVIER UNIVERSITY OF LOUISIANA, priority 2014, published 2018).
